US9493436B2, “Tyrosine phosphatase inhibitors and uses thereof to modulate the activity of enzymes involved in the pathology of Mycobacterium tuberculosis” (priority 2011, dated 2016)
Where “and” joins values, the source holds several entries; their conditions need not be identical. Equal values may be shown once. Entries after “also recorded” stand apart in the source; their conditions may differ. Read-outs that look alike come from different tables or passages of the source.

How the values were obtained:
SHP2 = SHP2 (Homo sapiens, UniProt Q06124); conditions: read-out: IC50 (μM) SHP2
[1] = tested on: ERK1/2 phosphorylation in Raw264.7 cells expressing mPTPB; assay: ERK phosphorylation in macrophage cells expressing mPTPB (western blot); format: cell-based, mouse; conditions: IFN-γ, L01Z08 especially at 120 and 240 nM
Procedure: (§1) As explained above, ERK phosphorylation is important in the cellular secretion pathway of IL-6. However, mPTPB blocks or inhibits the phosphorylation of ERK which reduces and potentially prevents IL-6 secretion altogether.
Raw264.7 mouse macrophages were cultured in Dulbecco's modified Eagle's medium (DMEM) supplemented with 10% FBS (Invitrogen), penicillin (50 units/mL), and streptomycin (50 μg/mL) under a humidified atmosphere containing 5% CO2 at 37° C. Transfected Raw264.7 cells (Vector, WT-mPTPB) were seeded in a 12-well plate at a density of 4×10^4 cells/well. The following day cells were treated with mPTPB inhibitor 213a for 1 hr, then stimulated with IFN-γ (200 U/ml) for 1 h. […]. Wash with ice-cold phosphate buffered saline, and lysed with lysis buffer on ice for 30 min. Cell lysate is then cleared by centrifuging at 13,000 rpm for 15 min. The phosphorylation of ERK1/2 and Akt was detected by western blotting.

[2] = tested on: Akt phosphorylation in Raw264.7 cells expressing mPTPB; format: cell-based, mouse; conditions: macrophage cells expressing mPTPB, increasing concentrations
Cdc14A = target: T1, Cdc14A (Homo sapiens, UniProt Q9UNH5); assay: PTP selectivity panel: Cdc14A; format: biochemical
T1 sequence (Q9UNH5 1-594): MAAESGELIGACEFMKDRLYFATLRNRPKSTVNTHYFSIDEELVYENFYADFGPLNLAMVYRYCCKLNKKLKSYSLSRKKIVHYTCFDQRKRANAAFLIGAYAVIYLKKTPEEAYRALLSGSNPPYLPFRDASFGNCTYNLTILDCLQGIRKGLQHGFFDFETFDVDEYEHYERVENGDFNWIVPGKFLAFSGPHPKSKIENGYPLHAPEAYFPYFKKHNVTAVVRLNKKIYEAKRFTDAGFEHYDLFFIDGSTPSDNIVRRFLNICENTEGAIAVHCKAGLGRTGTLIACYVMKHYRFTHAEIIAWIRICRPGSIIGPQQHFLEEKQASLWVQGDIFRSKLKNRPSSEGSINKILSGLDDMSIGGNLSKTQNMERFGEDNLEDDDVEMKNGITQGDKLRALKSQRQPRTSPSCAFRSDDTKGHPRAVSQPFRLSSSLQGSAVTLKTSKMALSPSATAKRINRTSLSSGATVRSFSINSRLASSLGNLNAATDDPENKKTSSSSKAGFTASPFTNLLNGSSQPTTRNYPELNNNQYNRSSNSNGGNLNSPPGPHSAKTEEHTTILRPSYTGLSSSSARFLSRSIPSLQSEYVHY

SHP1 = SHP1 (Homo sapiens, UniProt P29350); format: biochemical
Meg2 = Meg2 (Homo sapiens, UniProt P43378); conditions: read-out: IC50 (μM) Meg2
Laforin = Laforin (Homo sapiens, UniProt O95278); format: biochemical
[3] = Oral and intravenous pharmacokinetics in mice; format: in vivo
Procedure: Oral and intravenous (IV) pharmacokinetics were determined for compounds L01-Z06, L01-Z08 and L01-Z09 in mice. Drugs were administered by a single IV injection (5 mg/kg) or oral gavage (25 mg/kg) in 20% hydroxypropyl-b-cyclodextrin/2% diethanolamine and blood samples were collected at 0.5, 1, 3, 6, 9 and 24 hours later. All three compounds were readily administered by both IV and oral routes. […] Drug levels peaked at […] after IV injection, or […] after oral gavage. Based on these parameters, all three compounds are classified as highly permeable with moderate-slow clearance rates.

[4] = tested on: IL-6 secretion in cells expressing mPTPB; assay: IL-6 secretion in cells expressing mPTPB; format: cell-based; conditions: especially at 120 and 240 nM
Excerpt: as §1

mPTPB = target: T2, mPTPB (Mycobacterium tuberculosis, UniProt I6WXK4); assay: biochemical; format: biochemical
T2 construct: The full-length mPTPB with a N-terminal His6-tag was expressed and purified; His6 (N); made in house; host or cells: E. coli BL21/DE3 (pET28b-mPTPB)
T2 sequence (I6WXK4 1-276): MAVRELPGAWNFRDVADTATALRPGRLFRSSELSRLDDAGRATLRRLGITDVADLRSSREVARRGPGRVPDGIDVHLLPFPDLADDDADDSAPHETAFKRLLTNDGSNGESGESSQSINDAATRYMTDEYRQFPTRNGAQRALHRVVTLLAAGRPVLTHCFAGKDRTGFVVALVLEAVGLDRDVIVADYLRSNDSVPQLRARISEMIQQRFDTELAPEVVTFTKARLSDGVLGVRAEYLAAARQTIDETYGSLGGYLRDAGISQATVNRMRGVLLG

mPTPA = mPTPA (Mycobacterium tuberculosis, UniProt P9WIA1); assay: PTP selectivity panel: mPTPA; format: biochemical
YopH = YopH (UniProt P15273); format: biochemical; conditions: read-out: IC50 (μM) YopH
YopH, sequence (P15273 whole entry, looked up): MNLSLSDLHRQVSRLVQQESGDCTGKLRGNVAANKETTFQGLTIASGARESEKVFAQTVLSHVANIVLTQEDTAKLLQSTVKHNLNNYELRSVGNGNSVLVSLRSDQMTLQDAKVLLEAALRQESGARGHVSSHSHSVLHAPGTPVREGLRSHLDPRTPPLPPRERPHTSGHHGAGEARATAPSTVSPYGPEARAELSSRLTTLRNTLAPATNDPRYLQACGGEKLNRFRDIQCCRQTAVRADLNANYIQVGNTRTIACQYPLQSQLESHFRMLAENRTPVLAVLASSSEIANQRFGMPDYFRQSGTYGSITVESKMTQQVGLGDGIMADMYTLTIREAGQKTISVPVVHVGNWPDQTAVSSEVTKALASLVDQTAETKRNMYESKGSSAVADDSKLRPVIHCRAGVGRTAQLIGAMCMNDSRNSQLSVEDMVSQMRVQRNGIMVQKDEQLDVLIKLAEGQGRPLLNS

mPTPA, sequence (P9WIA1 whole entry): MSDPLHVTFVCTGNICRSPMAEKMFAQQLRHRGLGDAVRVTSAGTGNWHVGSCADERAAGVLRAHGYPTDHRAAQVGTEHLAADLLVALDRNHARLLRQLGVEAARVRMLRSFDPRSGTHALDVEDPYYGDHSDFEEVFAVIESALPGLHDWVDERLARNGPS
SHP2, sequence (Q06124 whole entry, species assumed): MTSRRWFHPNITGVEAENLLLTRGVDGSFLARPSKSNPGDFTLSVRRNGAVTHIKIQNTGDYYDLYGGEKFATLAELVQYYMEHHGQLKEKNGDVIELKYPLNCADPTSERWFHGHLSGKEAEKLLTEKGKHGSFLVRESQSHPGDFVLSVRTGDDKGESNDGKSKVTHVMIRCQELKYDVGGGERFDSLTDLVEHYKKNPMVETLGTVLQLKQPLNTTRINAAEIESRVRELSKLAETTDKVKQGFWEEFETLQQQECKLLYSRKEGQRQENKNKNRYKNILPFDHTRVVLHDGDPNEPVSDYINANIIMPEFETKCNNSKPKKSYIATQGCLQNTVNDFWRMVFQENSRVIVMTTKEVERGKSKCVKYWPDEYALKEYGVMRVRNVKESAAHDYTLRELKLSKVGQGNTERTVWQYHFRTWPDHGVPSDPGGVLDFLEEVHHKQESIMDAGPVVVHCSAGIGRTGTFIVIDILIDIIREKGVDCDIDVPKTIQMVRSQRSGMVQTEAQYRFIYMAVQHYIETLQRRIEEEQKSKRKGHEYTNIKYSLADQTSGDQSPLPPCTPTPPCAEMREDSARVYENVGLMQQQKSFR
Meg2, sequence (P43378 whole entry): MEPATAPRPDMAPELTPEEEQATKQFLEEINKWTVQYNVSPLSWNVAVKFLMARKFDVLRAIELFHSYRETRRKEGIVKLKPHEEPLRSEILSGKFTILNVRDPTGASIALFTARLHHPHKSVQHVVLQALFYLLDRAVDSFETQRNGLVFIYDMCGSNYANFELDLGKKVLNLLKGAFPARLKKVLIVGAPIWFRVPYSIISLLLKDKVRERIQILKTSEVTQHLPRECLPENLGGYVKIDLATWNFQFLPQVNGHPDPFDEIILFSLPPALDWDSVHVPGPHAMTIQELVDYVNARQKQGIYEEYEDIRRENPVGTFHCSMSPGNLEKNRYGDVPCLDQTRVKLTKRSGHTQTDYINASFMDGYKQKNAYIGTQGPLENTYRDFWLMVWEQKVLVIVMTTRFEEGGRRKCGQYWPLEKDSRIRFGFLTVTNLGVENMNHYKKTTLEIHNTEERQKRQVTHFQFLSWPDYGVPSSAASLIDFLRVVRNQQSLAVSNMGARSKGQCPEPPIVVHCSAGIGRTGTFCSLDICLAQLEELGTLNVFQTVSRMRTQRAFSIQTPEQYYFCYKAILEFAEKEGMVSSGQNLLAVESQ
SHP1, sequence (P29350 whole entry): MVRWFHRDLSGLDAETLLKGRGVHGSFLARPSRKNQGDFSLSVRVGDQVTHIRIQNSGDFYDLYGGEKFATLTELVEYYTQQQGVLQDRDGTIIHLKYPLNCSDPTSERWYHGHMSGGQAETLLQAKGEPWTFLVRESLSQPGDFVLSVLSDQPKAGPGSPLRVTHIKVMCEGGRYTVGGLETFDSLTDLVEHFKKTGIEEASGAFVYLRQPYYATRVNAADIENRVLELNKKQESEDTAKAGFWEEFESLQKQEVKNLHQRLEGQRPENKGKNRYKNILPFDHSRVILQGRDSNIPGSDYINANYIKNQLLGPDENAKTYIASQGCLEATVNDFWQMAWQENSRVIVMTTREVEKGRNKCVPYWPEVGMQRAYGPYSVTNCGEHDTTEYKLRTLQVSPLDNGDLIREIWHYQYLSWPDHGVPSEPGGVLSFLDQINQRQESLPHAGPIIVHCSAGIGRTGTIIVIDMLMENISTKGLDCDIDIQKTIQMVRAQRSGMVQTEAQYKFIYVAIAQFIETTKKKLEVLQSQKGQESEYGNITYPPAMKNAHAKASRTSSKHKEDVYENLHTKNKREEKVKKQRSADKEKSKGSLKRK
Laforin, sequence (O95278 whole entry, species assumed): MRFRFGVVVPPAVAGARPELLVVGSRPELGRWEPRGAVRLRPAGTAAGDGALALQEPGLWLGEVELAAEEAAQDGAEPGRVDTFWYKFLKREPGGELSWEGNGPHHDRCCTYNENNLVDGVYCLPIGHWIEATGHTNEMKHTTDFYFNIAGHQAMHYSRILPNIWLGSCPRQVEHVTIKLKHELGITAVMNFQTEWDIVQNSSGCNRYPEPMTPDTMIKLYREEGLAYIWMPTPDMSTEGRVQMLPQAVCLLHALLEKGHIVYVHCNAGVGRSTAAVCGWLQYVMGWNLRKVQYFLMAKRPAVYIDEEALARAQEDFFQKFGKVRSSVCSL

Compound: O=C(O)c1cc2c(C#Cc3cccc(C(F)(F)F)c3)c(-c3ccccc3)oc2cc1O [32 (L01Z08)]
- IC50 (SHP2): 1.8 ± 0.2 µM
- ERK phosphorylation / ERK1/2 activity [1]: normal or near normal levels
- AKT phosphorylation / Akt activation [2]: phosphorylation decreasing with treatments of increasing concentrations
- IC50 (Cdc14A): 6 ± 1 µM
- IC50 (SHP1): 2.3 ± 0.3 µM
- IC50 (Meg2): 4.3 ± 0.5 µM
- IC50 (Laforin): 40 ± 10 µM
- clearance ranking among the three compounds ([3]; mice): slowest clearance of the three
- Clearance % LPF ([3]; mice, IV 5 mg/kg): 28.9 % LPF
- Clearance % LPF ([3]; mice, PO 25 mg/kg): 38.2 % LPF
- Vdss ([3]; mice, PO 25 mg/kg): 6.58 L/kg
- clearance ([3]; mice, PO 25 mg/kg): 20.602 mL/min/kg
- time active levels (sufficient to inhibit target activity by 80% in cells) maintained ([3]; mice, after oral delivery): 18.5 h
- Tmax ([3]; mouse, blood, iv, 5 mg/kg, mice, IV 5 mg/kg): 0.5 h
- half-life ([3]; mouse, blood, mice, IV 5 mg/kg): 4.1 h
- clearance ([3]; mouse, blood, mice, IV 5 mg/kg, data normalized to 25 mg/kg dose, read-out: Clearance (converted)): 15.6 mL/min/kg
- Cmax ([3]; mouse, blood, mice, IV 5 mg/kg, data normalized to 25 mg/kg dose, read-out: Cmax (ng/mL)): 10200 ng/mL
- Cmax ([3]; mouse, blood, mice, IV 5 mg/kg, data normalized to 25 mg/kg dose, read-out: Cmax nM): 25500 nM
- Vd ([3]; mouse, blood, mice, IV 5 mg/kg, read-out: Vdss): 5.53 L/kg
- half-life ([3]; mouse, blood, mice, PO 25 mg/kg): 3.7 h
- bioavailability ([3]; mouse, blood, mice, PO 25 mg/kg vs IV 5 mg/kg, read-out: Absolute Bioavailability (oral)): 75.6%
- Cmax ([3]; mouse, blood, mice, PO 25 mg/kg, read-out: Cmax (ng/mL)): 2880 ng/mL
- Cmax ([3]; mouse, blood, mice, PO 25 mg/kg, read-out: Cmax nM): 7210 nM
- oral pK values over the 24 hour duration of the assay ([3]; oral, 24 hours): remain relatively constant
- IL-6 secretion [4]: returned to normal or near normal IL-6 secretion levels

Compound: Cn1c(-c2ccccc2C(F)(F)F)c(I)c2cc(C(=O)O)c(O)cc21 [Compound 207a, 6-hydroxy-3-iodo-1-methyl-2-(2-(trifluoromethyl)phenyl)-1H-indole-5-carboxylic acid]
- mode of mPTPB inhibition (mPTPB; kinetic analyses, Lineweaver-Burk plot): Non-competitive inhibition; also recorded: reversible and noncompetitive inhibitor
- Ki (mPTPB; pH 7.0, 25° C.): 1.21 ± 0.04 µM
- IC50 (mPTPB; pNPP substrate, pH 7.0, 25° C., read-out: IC50 (μM) against mPTPB): 1.2 µM and 1.18 µM
- selectivity for mPTPB over the other ten PTPs (mPTPB; panel of 11 PTPs): 47 fold
- IC50 (mPTPA): 82 ± 1 µM
- IC50 (YopH): 220 ± 20 µM
